Among the test systems are COLO 205 colon; SR leukemia; A549 NSCLC; RPMI-8226 leukemia; U251 CNS; A498 renal; K-562 leukemia; SK-MEL-28 melanoma; T-47D breast; NCI-H226 lung.
What all share (experiment): NCI-60 cell line screen, 48 h

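Test compounds were applied to cells in 96-well plates for 48 hours at 5 doses. GI50 is the concentration that inhibits growth by half. Definition used: TGI = concentration required for complete inhibition of growth.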 A value given as a limit tells only on which side of the number the result lay.

`N#CC1=C(N)Oc2c(sc3c(F)cccc23)C1c1ccc([N+](=O)[O-])cc1` (stereo not drawn): the GI50 in the assay with COLO 205 colon was 0.279 µM; with SR leukemia, 0.0478 µM; with A549 NSCLC, 0.214 µM; in the assay on RPMI-8226 leukemia, 0.215 µM; in the assay with U251 CNS, 0.153 µM; in the assay with A498 renal, 0.0219 µM. In addition, the GI50 in the assay with K-562 leukemia was 0.0494 µM; with SK-MEL-28 melanoma it was 0.34 µM; in the assay with T-47D breast, 0.254 µM; with NCI-H226 lung, 0.376 µM. In addition, the TGI turned out to be 1.11 µM in the assay with COLO 205 colon; 7.42 µM with SR leukemia; 2.37 µM in the assay with A549 NSCLC; 1.45 µM in the assay with RPMI-8226 leukemia; 1.21 µM in the assay on U251 CNS; 0.691 µM with A498 renal. Also, the TGI with K-562 leukemia stood at 1.79 µM; in the assay with SK-MEL-28 melanoma, 1.97 µM; in the assay on T-47D breast, 2.86 µM; with NCI-H226 lung, 1.93 µM.
On to `C=CC(=O)Nc1cc2c(Nc3ccc(OCc4ccccn4)c(Cl)c3)ncnc2cc1OCCN1CCOCC1`, for which the GI50 in the assay on COLO 205 colon is 6.19 µM; with SR leukemia, 2.62 µM; with A549 NSCLC, 6.4 µM; in the assay with RPMI-8226 leukemia, 2.15 µM; in the assay on U251 CNS, 4.65 µM; in the assay with A498 renal, 1.48 µM. Further, the GI50 with K-562 leukemia was 2.79 µM; in the assay on SK-MEL-28 melanoma, 5.11 µM; in the assay with T-47D breast it was less than 0.0181 µM; with NCI-H226 lung, 6.56 µM. Also, the TGI with COLO 205 colon was more than 100 µM; in the assay on SR leukemia it was more than 100 µM; in the assay on A549 NSCLC, more than 100 µM; with RPMI-8226 leukemia it was more than 27.6 µM; with U251 CNS, more than 100 µM; in the assay with A498 renal, 7.23 µM. The TGI with K-562 leukemia is more than 100 µM; in the assay on SK-MEL-28 melanoma, 19.3 µM; with T-47D breast, more than 100 µM; in the assay with NCI-H226 lung, more than 83.6 µM.
In the case of `O=C1C(Nc2ccccn2)=C(I)C(=O)c2ncccc21`, the GI50 is 1.9 µM in the assay with COLO 205 colon; 0.274 µM in the assay on SR leukemia; 1.28 µM in the assay on A549 NSCLC; 1.19 µM in the assay on RPMI-8226 leukemia; 0.591 µM in the assay on U251 CNS; 1.26 µM with A498 renal. Moreover, the GI50 in the assay on K-562 leukemia is 0.367 µM; in the assay with SK-MEL-28 melanoma, 1.68 µM; in the assay with T-47D breast, 1.36 µM; in the assay with NCI-H226 lung it was 1.43 µM. The TGI in the assay with COLO 205 colon turned out to be 3.68 µM; in the assay on SR leukemia, 10 µM; in the assay on A549 NSCLC, 2.88 µM; in the assay on RPMI-8226 leukemia it was 3.73 µM; in the assay with U251 CNS, 2.07 µM; in the assay with A498 renal it was 2.74 µM. In addition, the TGI in the assay on K-562 leukemia turned out to be 4.29 µM; in the assay on SK-MEL-28 melanoma, 3.18 µM; in the assay on T-47D breast, 3.82 µM; with NCI-H226 lung, 3.08 µM.
For the molecule `COC(=O)c1c2c(c(C)[n+]([O-])c1C)C(=O)C(NCc1ccc(F)c(Cl)c1)=CC2=O`, the GI50 in the assay with COLO 205 colon was 0.588 µM; with SR leukemia, 2.5 µM; in the assay with A549 NSCLC, 2.23 µM; in the assay on RPMI-8226 leukemia, 3.08 µM; in the assay with U251 CNS, 2.53 µM; with A498 renal it was 1.52 µM. Besides, the GI50 with K-562 leukemia was 2.67 µM; with SK-MEL-28 melanoma, 3.03 µM; in the assay on T-47D breast, 1.84 µM; with NCI-H226 lung, 2.98 µM. Also, the TGI was 2.29 µM in the assay on COLO 205 colon; more than 100 µM with SR leukemia; 8.15 µM in the assay on A549 NSCLC; 24.1 µM with RPMI-8226 leukemia; 13.8 µM in the assay on U251 CNS; 3.68 µM with A498 renal. The TGI is more than 100 µM in the assay on K-562 leukemia, 13.2 µM in the assay with SK-MEL-28 melanoma, 5.09 µM in the assay on T-47D breast and 9.32 µM in the assay with NCI-H226 lung.
As to `C#C[C@]1(O)CC[C@H]2[C@@H]3CC=C4c5nc(Nc6ccc(OC)cc6OC)sc5CC[C@]4(C)[C@H]3CC[C@@]21C`, the GI50 with COLO 205 colon was 2.14 µM; in the assay on SR leukemia, 0.523 µM; in the assay on A549 NSCLC, 2.68 µM; with RPMI-8226 leukemia, 0.248 µM; in the assay with U251 CNS, 0.77 µM; with A498 renal, 0.152 µM. Moreover, the GI50 in the assay on K-562 leukemia was 0.525 µM; with SK-MEL-28 melanoma, 0.712 µM; with T-47D breast it was 2.67 µM; in the assay on NCI-H226 lung it was 2.3 µM. In addition, the TGI was 4.78 µM with COLO 205 colon; 11.2 µM with SR leukemia; 43.9 µM in the assay on A549 NSCLC; 0.804 µM with RPMI-8226 leukemia; 4.09 µM in the assay with U251 CNS; 1.23 µM with A498 renal. For the same molecule, the TGI was found to be 13 µM in the assay with K-562 leukemia, 2.7 µM in the assay with SK-MEL-28 melanoma, 15.7 µM in the assay on T-47D breast and 6.23 µM in the assay on NCI-H226 lung.
`O=C1c2cccc3c(N4CCN(c5ccc6c7c(cccc57)C(=O)N(CCN5CCNCC5)C6=O)CC4)ccc(c23)C(=O)N1CCN1CCNCC1`: the GI50 is 8.87 µM in the assay on COLO 205 colon; 2.64 µM with SR leukemia; 16.3 µM in the assay with A549 NSCLC; 2.45 µM in the assay on RPMI-8226 leukemia; 16.8 µM in the assay with U251 CNS; 17.3 µM in the assay on A498 renal. For the same molecule, the GI50 is 2.78 µM with K-562 leukemia, 17.1 µM in the assay with SK-MEL-28 melanoma, more than 100 µM in the assay on T-47D breast and 12.4 µM with NCI-H226 lung. Also, the TGI was more than 100 µM in the assay on COLO 205 colon; 8.66 µM in the assay with SR leukemia; 35.6 µM in the assay with A549 NSCLC; 8.55 µM in the assay with RPMI-8226 leukemia; 35.7 µM in the assay with U251 CNS; 36.4 µM in the assay on A498 renal. Besides, the TGI with K-562 leukemia is 8.29 µM; in the assay with SK-MEL-28 melanoma, 34.4 µM; in the assay with T-47D breast it was more than 100 µM; in the assay on NCI-H226 lung it was 29 µM.
Consider `NC1=C(c2nc(-c3cc4ccccc4oc3=O)cs2)C(c2ccco2)c2c(c3ccccc3oc2=O)O1` (stereo not drawn), for which the GI50 was more than 150 µg/mL with COLO 205 colon; 51.9 µg/mL in the assay with SR leukemia; more than 150 µg/mL in the assay with A549 NSCLC; 21.7 µg/mL in the assay on U251 CNS; 66.1 µg/mL with A498 renal; 95.9 µg/mL in the assay with K-562 leukemia. Further, the GI50 in the assay with SK-MEL-28 melanoma was more than 150 µg/mL; in the assay on T-47D breast, more than 150 µg/mL; in the assay with NCI-H226 lung, 43.1 µg/mL. In addition, the TGI with COLO 205 colon was more than 150 µg/mL; in the assay on SR leukemia, more than 150 µg/mL; with A549 NSCLC, more than 150 µg/mL; in the assay on U251 CNS, 58.4 µg/mL; with A498 renal, more than 150 µg/mL; with K-562 leukemia it was more than 150 µg/mL. The TGI is more than 150 µg/mL in the assay with SK-MEL-28 melanoma, more than 150 µg/mL with T-47D breast and 131 µg/mL with NCI-H226 lung.

The values above are taken from PubChem BioAssay (NCI).
